This data set relates to hyperglycemic rats. Nature of the data set: ERG in hyperglycemic rat diabetic retinopathy model. It is filed as in vivo, SD rats (spontaneously hyperglycemic strain). The text has this: Hyperglycemic Rat Diabetic Retinopathy Model—A spontaneously hyperglycemic strain of SD rats, which developed clinical signs of diabetic retinopathy within 4 weeks of birth were identified and isolated within the Vernon Jansen Animal Research Unit, Faculty of Medical and Health Sciences at the University of Auckland. The identification of these rats presenting with hyperglycemia and microaneurysms provided an opportunity to treat a complex, chronic disease model and assess the treatment effect based upon objective, measurable endpoints, despite lacking precise information on the etiology of the disease. Inbreeding was carried out over three generations and eyes were screened for abnormalities between 4-8 weeks of age. Additional information about these rats is presented as supplementary information. Glucose levels were tested in non-fasting rats (Lee J J, Yi H Y, Yang J W, Shin J S, Kwon J H, Kim C W. Characterization of streptozotocin-induced diabetic rats and pharmacodynamics of insulin formulations. Biosci Biotechnol Biochem. 2003; 67:2396-401) using a Freestyle Optium Glucometer (Abbott Laboratories Ltd., UK) and Freestyle Optium glucose strips.
Ten rats per group were the selected (10 normal SD and 10 hyperglycemic) grown to 5 weeks of age and assessed using OCT and ERG. The hyperglycemic rat group was then split into two subgroups of five, with one subgroup fed tonabersat once daily for 14 days from weeks 5 to 7 at a low dose level of 0.28 mg/kg in 0.5 g peanut butter, with the other subgroup fed 0.5 g peanut butter only. All animals were assessed again using ERG and OCT at 8 weeks of age before euthanizing animals and removing the eyes for immunohistochemical analysis. Data groups were randomized prior to the statistical comparison. In summary, normal SD and hyperglycemic rats were analyzed with OCT and ERG at 5 weeks of age; the hyperglycemic rats were then split into two groups and fed the vehicle or tonabersat for 14 days during weeks 6 and 7 of age. At week 8, animals were again assessed with ERG and OCT and tissues collected for immunohistochemical analysis. Four tonabersat-treated rats were, however, left until 3 months of age before final ERG and OCT and tissue collection.
Electroretinogram Recording—The procedure was performed as described previously. Vessey K A, Wilkinson-Berka J L, Fletcher E L. Characterization of retinal function and glial cell response in a mouse model of oxygen-induced retinopathy. J Comp Neurol. 2011; 519:506-27. Essentially, SD rats were dark-adapted overnight for 12-14 hours before the ERG recording. For the dry AMD, the ERG baseline was recorded for all groups before light damage and at time points after the light damage insult (24 hours, 1 week, 2 weeks and 3 months post intense light). For the DR model, ERGs were recorded at 5 weeks of age to compare normal SD and hyperglycemic rat retinal function. Tonabersat treated and vehicle control hyperglycemic rats were assessed again at 8 weeks of age. After dark adaptation, rats were anaesthetized by an intraperitoneal injection of a combination of ketamine (75 mg/kg, Parnell Technologies, New Zealand) and domitor (0.5 mg/kg, Pfizer, New Zealand). A dim red light generated by a light-emitting diode (λmax=650 nm) was used during manipulations of dark-adapted animals. The corneas were maintained hydrated with 1% carboxymethylcellulose sodium (Celluvisc, Allergan, USA) during ERG recording. Right and left eye ERGs were recorded using gold ring electrodes (Roland Consult Stasche & Finger GmbH, Germany). A U-shaped active electrode was kept in contact with the center of the cornea. […] Normal body temperature was maintained to avoid temperature-driven ERG amplitude fluctuation by placing animals on a 37° C. heated pad. Full-field ERG responses were elicited by a twin-flash ([…] stimulus interval) generated from a photographic flash unit (Nikon SB900 flash, Japan), via a Ganzfeld sphere. […]

Setting [1] is: 0.28 mg/kg once daily 14 days, week 8, p<0.001.
The mark [2] stands for this setting: 0.28 mg/kg once daily 14 days, week 8, p<0.01.

SMILES strings stand for the structures.

`CC(=O)c1ccc2c(c1)[C@H](NC(=O)c1ccc(F)c(Cl)c1)[C@H](O)C(C)(C)O2` [tonabersat, N-[(3S,4S)-6-acetyl-3-hydroxy-2,2-dimethyl-3,4-dihydrochromen-4-yl]-3-chloro-4-fluorobenzamide]: for the setting “0.28 mg/kg once daily 14 days, 8 weeks, untreated −370 V”, the mixed ERG a-wave, maximum intensity is -630 µV. Besides, the implicit times result (0.28 mg/kg once daily 14 days, week 8) is on record as “not different”. Also, the mixed b-wave signals result (0.28 mg/kg once daily 14 days, week 8, all intensities, p<0.001) was “significantly recovered”. Moreover, under “0.28 mg/kg once daily 14 days, week 8, intensities 0.1-2.1 cd·s/m2, p<0.001”, the “mixed ERG a-wave vs untreated” value is recorded as “significantly higher”. Under setting [1], the “rod PII amplitude” value is “significantly recovered” and the “rod PIII amplitude” value is “significantly recovered”. Further, under setting [2], the “cone PII amplitude” value is “significantly recovered” and the “summed OPs amplitude” value was “significantly recovered”. Further, the mixed b-wave, maximum intensity (0.28 mg/kg once daily 14 days, week 8, untreated controls 400 V) turned out to be 700 µV. In addition, the “retinal function compared to vehicle hyperglycemic rats” value (0.28 mg/kg oral once daily 14 days (weeks 5 to 7), week 8) was “significantly recovered”.

Values taken from US20220401408A1, “COMPOSITIONS AND METHODS FOR RESCUING RETINAL AND CHOROIDAL STRUCTURE AND FUNCTION” (AUCKLAND UNISERVICES LIMITED, priority 2019, published 2022).
